{
  "source": "patent EP4060021A1",
  "about": "“MIMETIC MICROBIOLOGICAL CULTURE MEDIUM AND USES THEREOF” (BIOFILM PHARMA, priority 2021, dated 2022)",
  "origin": "cited, not measured here",
  "key": {"[1]": {"system": "souches de S. aureus issues de plaies", "conditions": "cited from earlier work"}, "souche de S. aureus": {"system": "souche de S. aureus", "conditions": "modèle de sepsis, souris infectée par S. aureus, traitées; cited from earlier work"}, "S. aureus": {"system": "S. aureus", "conditions": "coculture S. aureus avec P. aeruginosa dans du milieu Lubbock; cited from earlier work"}, "P. aeruginosa": {"system": "P. aeruginosa", "conditions": "coculture S. aureus avec P. aeruginosa dans du milieu Lubbock; cited from earlier work"}},
  "note": "Where two headings read alike, the source gives them in different places.",
  "data": [
    {"molecule": "CCCCCCCCCC(=O)N[C@@H](Cc1c[nH]c2ccccc12)C(=O)N[C@@H](CC(N)=O)C(=O)N[C@@H](CC(=O)O)C(=O)N[C@@H]1C(=O)NCC(=O)N[C@@H](CCCN)C(=O)N[C@@H](CC(=O)O)C(=O)N[C@H](C)C(=O)N[C@@H](CC(=O)O)C(=O)NCC(=O)N[C@H](CO)C(=O)N[C@@H]([C@H](C)CC(=O)O)C(=O)N[C@@H](CC(=O)c2ccccc2N)C(=O)O[C@@H]1C", "note": "(stereo in doubt) [daptomycine]", "values": [
      {"measurement": "sensibilité des souches de S. aureus", "setting": "[1]; milieu DMEM", "result": "plus sensibles"},
      {"measurement": "sensibilité des souches de S. aureus", "setting": "[1]; milieux MLM ou Lacks", "result": "plus résistantes"}
    ]},
    {"molecule": "CC(=O)OCC1=C(C(=O)O)N2C(=O)[C@@H](NC(=O)Cc3cccs3)[C@H]2SC1", "note": "[cefalotine]", "values": [
      {"measurement": "survie des souris", "setting": "souche de S. aureus", "result": "ont survécu"}
    ]},
    {"molecule": "CO/N=C(\\C(=O)N[C@@H]1C(=O)N2C(C(=O)O)=C(CSc3nc(=O)c(=O)[nH]n3C)CS[C@H]12)c1csc(N)n1", "note": "[ceftriaxone]", "values": [
      {"measurement": "survie des souris", "setting": "souche de S. aureus", "result": "ont survécu"}
    ]},
    {"molecule": "CC[C@H]1OC(=O)[C@H](C)[C@@H](O[C@H]2C[C@@](C)(OC)[C@@H](O)[C@H](C)O2)[C@H](C)[C@@H](O[C@@H]2O[C@H](C)C[C@H](N(C)C)[C@H]2O)[C@](C)(O)C[C@@H](C)C(=O)[C@H](C)[C@@H](O)[C@]1(C)O", "note": "[érythromycine]", "values": [
      {"measurement": "survie des souris", "setting": "souche de S. aureus", "result": "ont survécu"}
    ]},
    {"molecule": "gentamicine", "values": [
      {"measurement": "résistance en coculture", "setting": "S. aureus", "result": "résistance partielle"},
      {"measurement": "résistance en coculture", "setting": "P. aeruginosa", "result": "ce qui n'est pas le cas"}
    ]}
  ]
}
